Measured values: patent US7030137B2, “Substituted thiophenes with antibacterial activity” (Replidyne, Inc., priority 2003, dated 2006)
pIC50: −log10 of the molar value. ≈ marks a conversion by molar mass, not a printed value. Where a name gives a salt, the structure may show the parent alone.

Assays:
[1] = system: S. aureus, S. pneumoniae, and E. faecalis; assay: MIC against some strains of gram positive pathogens; type: cell-based
Experimental: (§1) Compounds of the present invention were assayed for antibacterial activity against a range of pathogenic organisms (strains of S aureus, S pneumoniae, E faecalis, H influenzae and M catarrhalis) in a standard MIC assay modified by the inclusion of cyclodextrin, to assist with solubility.

S. pneumo = assay: MIC S. pneumo (standard MIC assay modified by inclusion of cyclodextrin); type: cell-based; details: Streptococcus pneumoniae
Experimental: as §1

S. aureus = assay: MIC S. aureus (standard MIC assay modified by inclusion of cyclodextrin); type: cell-based; details: Staphylococcus aureus
Experimental: as §1

H. influenzae = assay: MIC H. influenzae (standard MIC assay modified by inclusion of cyclodextrin); type: cell-based; details: Haemophilus influenzae
Experimental: as §1

[2] = system: M catarrhalis and H. influenzae; assay: MIC against some strains of gram negative pathogens; type: cell-based; details: Haemophilus influenzae
Experimental: as §1

[3] = target: T1, recombinant H. influenzae MRS (Haemophilus influenzae, UniProt P43828); assay: Enzyme Inhibition (H. influenzae MRS) aminoacylation assay; type: biochemical; details: read-out: IC50 against H. influenzae MRS
T1 construct: made in house
Experimental: 2. Enzyme Inhibition (H. influenzae MRS)—aminoacylation assay
Compounds of the present invention may be assayed for their ability to inhibit the enzyme methionyl tRNA synthetase (MRS), using recombinant H. influenzae MRS(R. D. Fleischmann et al., Science, 269, 496–512, 1995), as follows:
The reaction is started by adding 20 μl appropriately diluted pure enzyme (pre-incubated with inhibitor) to 25 μl reaction mix for 10 min at room temperature. The reaction is terminated by the addition of 150 μl 167 mM sodium citrate, pH 2.15 containing phosphodiesterase (PDE) SPA beads (0.833 mg/ml). The binding of the radiolabelled product to the bead brings the isotope into close enough proximity to allow radiation from the tritium to excite the scintillant within the bead. Any unbound radiolabel is not close enough to the scintillant to allow this energy transfer, so no signal is generated. Following termination of the reaction, plates are spun at 2500 rpm for 5 min in a Mistral 3000E plate centrifuge (or alternatively allowed to stand for 1 hour). The assay is conducted in 96-well Optiplates (Packard). Plates are counted on a TopCount. (Packard 96 well counter).
Mixed E. coli MRE 600 tRNA and ATP were purchased from Boehringer-Mannheim, L-[methyl-^3H]methionine and phosphodiesterase scintillation proximity (SPA) beads from Amersham Pharmacia Biotech and other reagents from Sigma.

[4] = prior art thiophenes of U.S. Pat. No. 6,320,051

T1 sequence (P43828 whole entry): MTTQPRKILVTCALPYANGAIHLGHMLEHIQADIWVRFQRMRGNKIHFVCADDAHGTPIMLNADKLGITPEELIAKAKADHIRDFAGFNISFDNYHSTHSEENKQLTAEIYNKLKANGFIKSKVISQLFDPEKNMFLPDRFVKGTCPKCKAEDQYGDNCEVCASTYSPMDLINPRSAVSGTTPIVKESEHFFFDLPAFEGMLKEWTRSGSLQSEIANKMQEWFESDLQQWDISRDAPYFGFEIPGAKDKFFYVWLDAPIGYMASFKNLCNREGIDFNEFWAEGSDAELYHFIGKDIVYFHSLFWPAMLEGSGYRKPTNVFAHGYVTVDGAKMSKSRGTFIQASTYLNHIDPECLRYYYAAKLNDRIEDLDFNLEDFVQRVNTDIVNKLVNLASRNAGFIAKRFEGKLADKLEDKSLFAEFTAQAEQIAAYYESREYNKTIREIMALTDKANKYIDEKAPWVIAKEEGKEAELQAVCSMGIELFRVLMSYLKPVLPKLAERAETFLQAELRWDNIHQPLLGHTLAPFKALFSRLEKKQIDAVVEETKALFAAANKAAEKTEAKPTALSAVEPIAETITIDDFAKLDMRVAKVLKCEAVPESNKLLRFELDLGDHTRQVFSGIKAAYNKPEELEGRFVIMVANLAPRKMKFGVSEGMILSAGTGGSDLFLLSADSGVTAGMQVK

Structure (SMILES)	MIC [1] [µg/mL]	MIC (S. pneumo) [µg/mL]	MIC (S. aureus) [µg/mL]	MIC (H. influenzae) [µg/mL]	MIC [2] [µg/mL]	pIC50 [3]	MIC (S. pneumo; [4]) [µg/mL]	MIC (S. aureus; [4]) [µg/mL]	MIC (H. influenzae; [4]) [µg/mL]
Cc1c(CNCCCNc2cc(=O)c3ccccc3[nH]2)sc(Br)c1Br [Example 1, N-(4,5-Dibromo-3-methylthiophen-2-ylmethyl)-N′-(1H-quinolin-4-one)propane-1,3-diamine]	0.06 to 0.5 (≈ 0.124 to 1.03 µM)	0.06 (≈ 0.124 µM)	0.25 (≈ 0.515 µM)	32 (≈ 65.9 µM)	–	–	–	–	–
C#Cc1sc(CNCCCNc2cc(=O)c3ccccc3[nH]2)c(C)c1Br [Example 2, N-(4-bromo-5-ethynyl-3-methylthiophen-2-ylmethyl)-N′-(1H-quinolin-4-one)propane-1,3-diamine]	0.06 to 0.5 (≈ 0.139 to 1.16 µM)	0.06 (≈ 0.139 µM)	0.13 (≈ 0.302 µM)	> 64	–	–	–	–	–
C=Cc1sc(CNCCCNc2cc(=O)c3ccccc3[nH]2)c(C)c1Br [Example 3, N-(4-bromo-3-methyl-5-vinylthiophen-2-ylmethyl)-N′-(1H-quinolin-4-one)propane-1,3-diamine]	0.06 to 0.5 (≈ 0.139 to 1.16 µM)	0.06 (≈ 0.139 µM)	0.06 (≈ 0.139 µM)	16 (≈ 37 µM)	–	–	–	–	–
C=C(F)c1sc(CNCCCNc2cc(=O)c3ccccc3[nH]2)c(C)c1Br [Example 4, N-(4-bromo-5-(1-fluorovinyl)-3-methylthiophen-2-ylmethyl)-N′-(1H-quinolin-4-one)propane-1,3-diamine]	0.06 to 0.5 (≈ 0.133 to 1.11 µM)	0.06 (≈ 0.133 µM)	0.06 (≈ 0.133 µM)	4 (≈ 8.88 µM)	0.13 to 8 (≈ 0.289 to 17.8 µM)	–	–	–	–
CCc1sc(CNCCCNc2cc(=O)c3ccccc3[nH]2)c(C)c1Br [Example 5, N-(4-bromo-5-ethyl-3-methylthiophen-2-ylmethyl)-N′-(1H-quinolin-4-one)propane-1,3-diamine]	0.06 to 0.5 (≈ 0.138 to 1.15 µM)	0.25 (≈ 0.576 µM)	0.06 (≈ 0.138 µM)	64 (≈ 147 µM)	–	–	–	–	–
Cc1c(CNCCCNc2cc(=O)c3ccccc3[nH]2)sc(C2CC2)c1Br [Example 6, N-(4-bromo-5-cyclopropyl-3-methylthiophen-2-ylmethyl)-N′-(1H-quinolin-4-one)propane-1,3-diamine]	0.06 to 0.5 (≈ 0.134 to 1.12 µM)	0.13 (≈ 0.291 µM)	0.06 (≈ 0.134 µM)	32 (≈ 71.7 µM)	–	–	–	–	–
Cc1c(CNCCCNc2cc(=O)c3ccccc3[nH]2)sc(C(F)F)c1Br [Example 7, N-(4-bromo-5-difluoromethyl-3-methylthiophen-2-ylmethyl)-N′-(1H-quinolin-4-one)propane-1,3-diamine]	1 to 2 (≈ 2.19 to 4.38 µM)	1 (≈ 2.19 µM)	1 (≈ 2.19 µM)	64 (≈ 140 µM)	–	–	–	–	–
Cc1c(CNCCCNc2cc(=O)c3ccccc3[nH]2)sc(C(F)(F)F)c1Br [Example 8, N-(4-bromo-3-methyl-5-trifluoromethylthiophen-2-ylmethyl)-N′-(1H-quinolin-4-one)propane-1,3-diamine]	0.06 to 0.5 (≈ 0.126 to 1.05 µM)	0.13 (≈ 0.274 µM)	0.13 (≈ 0.274 µM)	64 (≈ 135 µM)	–	–	–	–	–
CC#Cc1c(CNCCCNc2cc(=O)c3ccccc3[nH]2)sc(CC)c1Br [Example 9, N-(4-bromo-3-(1-propynyl)-5-ethylthiophen-2-ylmethyl)-N′-(1H-quinolin-4-one)propane-1,3-diamine]	0.06 to 0.5 (≈ 0.131 to 1.09 µM)	0.06 (≈ 0.131 µM)	0.06 (≈ 0.131 µM)	64 (≈ 140 µM)	–	–	–	–	–
CC=Cc1c(CNCCCNc2cc(=O)c3ccccc3[nH]2)sc(CC)c1Br [Example 10, N-(4-bromo-3-(1-propenyl)-5-ethylthiophen-2-ylmethyl)-N′-(1H-quinolin-4-one)propane-1,3-diamine]	0.06 to 0.5 (≈ 0.13 to 1.09 µM)	0.25 (≈ 0.543 µM)	0.06 (≈ 0.13 µM)	8 (≈ 17.4 µM)	0.13 to 8 (≈ 0.282 to 17.4 µM)	–	–	–	–
Cc1c(CNCCCNc2nc3nnccc3[nH]2)sc(C2CC2)c1Br [Example 11, N-(4-Bromo-5-cyclopropyl-3-methylthiophen-2-ylmethyl)-N′-(5H-imidazo[4,5-c]pyridazin-6-yl)propane-1,3-diamine dihydrochloride]	1 to 2	8	2	2	0.13 to 8	–	–	–	–
Cc1c(CNCCCNc2nc3nnccc3[nH]2)sc(C(F)(F)F)c1Br [Example 12, N-(4-bromo-3-methyl-5-trifluoromethylthiophen-2-ylmethyl)-N′-(5H-imidazo[4,5-c]pyridazin-6-yl)propane-1,3-diamine dihydrochloride]	0.06 to 0.5	2	0.5	0.25	0.13 to 8	–	–	–	–
C=Cc1sc(CNCCCNc2nc3nnccc3[nH]2)c(C)c1Br [Example 13, N-(4-bromo-3-methyl-5-vinylthiophen-2-ylmethyl)-N′-(5H-imidazo[4,5-c]pyridazin-6-yl)propane-1,3-diamine dihydrochloride]	0.06 to 0.5	2	0.5	2	0.13 to 8	–	–	–	–
C=C(F)c1sc(CNCCCNc2nc3nnccc3[nH]2)c(C)c1Br [Example 14, N-(4-bromo-5-(1-fluorovinyl)-3-methylthiophen-2-ylmethyl)-N′-(5H-imidazo[4,5-c]pyridazin-6-yl)propane-1,3-diamine dihydrochloride]	0.06 to 0.5	0.25	0.25	0.13	0.13 to 8	–	–	–	–
C#Cc1sc(CNCCCNc2nc3nnccc3[nH]2)c(C)c1Br [Example 15, N-(4-bromo-5-ethynyl-3-methylthiophen-2-ylmethyl)-N′-(5H-imidazo[4,5-c]pyridazin-6-yl)propane-1,3-diamine dihydrochloride]	1 to 2	0.5	1	0.5	0.13 to 8	–	–	–	–
Cc1c(CNCCCNc2nc3ncccc3[nH]2)sc(C(F)F)c1Br [Example 16, N-(4-bromo-5-difluoromethyl-3-methylthiophen-2-ylmethyl)-N′-(1H-imidazo[4,5-b]pyridin-2-yl)-propane-1,3-diamine]	0.06 to 0.5 (≈ 0.139 to 1.16 µM)	4 (≈ 9.3 µM)	0.5 (≈ 1.16 µM)	64 (≈ 149 µM)	–	–	–	–	–
C=C(F)c1sc(CNCCCNc2nc3ncccc3[nH]2)c(C)c1Br [Example 17, N-(4-bromo-5-(1-fluorovinyl)-3-methylthiophen-2-ylmethyl)-N′-(1H-imidazo[4,5-b]pyridin-2-yl)-propane-1,3-diamine]	0.06 to 0.5 (≈ 0.141 to 1.18 µM)	0.25 (≈ 0.589 µM)	0.06 (≈ 0.141 µM)	64 (≈ 151 µM)	–	≥ 6.70	–	–	–
Cc1c(CNCCCNc2nc3cscc3[nH]2)sc(C(F)F)c1Br [Example 19, N-(4-Bromo-5-difluoromethyl-3-methylthiophen-2-ylmethyl)-N′-(1H-thieno[3,4-d]imidazol-2-yl)propane-1,3-diamine]	0.06 to 0.5 (≈ 0.138 to 1.15 µM)	0.5 (≈ 1.15 µM)	0.13 (≈ 0.299 µM)	16 (≈ 36.8 µM)	–	–	–	–	–
Cc1c(CNCCCNc2nc3cscc3[nH]2)sc(C(F)(F)F)c1Br [Example 20, N-(4-Bromo-3-methyl-5-trifluoromethylthiophen-2-ylmethyl)-N′-(1H-thieno[3,4-d]imidazol-2-yl)propane-1,3-diamine]	0.06 to 0.5 (≈ 0.132 to 1.1 µM)	0.5 (≈ 1.1 µM)	0.25 (≈ 0.551 µM)	16 (≈ 35.3 µM)	–	–	–	–	–
C=C(F)c1sc(CNCCCNc2nc3ccccc3[nH]2)c(C)c1Br [Example 22, N-(4-bromo-5-(1-fluorovinyl)-3-methylthiophen-2-ylmethyl)-N′-(1H-benzimidazole)propane-1,3-diamine]	0.06 to 0.5 (≈ 0.142 to 1.18 µM)	0.5 (≈ 1.18 µM)	0.13 (≈ 0.307 µM)	16 (≈ 37.8 µM)	–	≥ 6.70	–	–	–
Cc1c(CNCCCNc2nc3ccccc3[nH]2)sc(C(F)F)c1Br [Example 23, N-(4-bromo-5-difluoromethyl-3-methylthiophen-2-ylmethyl)-N′-(1H-benzimidazole)propane-1,3-diamine]	1 to 2 (≈ 2.33 to 4.66 µM)	4 (≈ 9.32 µM)	1 (≈ 2.33 µM)	8 (≈ 18.6 µM)	0.13 to 8 (≈ 0.303 to 18.6 µM)	–	–	–	–
Cc1c(CNCCCNc2nc3ccccc3[nH]2)sc(C(F)(F)F)c1Br [Example 24, N-(4-bromo-3-methyl-5-trifluoromethylthiophen-2-ylmethyl)-N′-(1H-benzimidazole)propane-1,3-diamine]	0.06 to 0.5 (≈ 0.134 to 1.12 µM)	1 (≈ 2.24 µM)	0.5 (≈ 1.12 µM)	8 (≈ 17.9 µM)	0.13 to 8 (≈ 0.291 to 17.9 µM)	–	–	–	–
Cc1c(CNCCCNc2nc(=O)c3sccc3[nH]2)sc(Br)c1Br [Example 25, N-(4,5-Dibromo-3-methylthiophen-2-ylmethyl)-N′-(1H-thieno [3,2-d]pyrimidin-4-one)propane-1,3-diamine]	0.06 to 0.5 (≈ 0.122 to 1.02 µM)	2 (≈ 4.06 µM)	0.5 (≈ 1.02 µM)	32 (≈ 65 µM)	–	≥ 6.70	–	–	–
O=c1cc(NCCCNCc2cc(Br)c(Br)s2)[nH]c2ccccc12 [Example 37]	–	–	–	–	–	–	1 (≈ 2.12 µM)	8 (≈ 17 µM)	> 64
O=c1cc(NCCCNCc2sc(Br)c(Br)c2Br)[nH]c2ccccc12 [Example 65]	–	–	–	–	–	–	1 (≈ 1.82 µM)	2 (≈ 3.64 µM)	> 64
O=c1cc(NC[C@H]2CCC[C@@H]2NCc2cc(Br)c(Br)s2)[nH]c2ccccc12 [Example 74]	–	–	–	–	–	–	2 (≈ 3.91 µM)	2 (≈ 3.91 µM)	> 64
